Experimental data taken from the NIST ThermoML archive (doi:10.1016/j.jct.2019.03.023).
“And” between values parts separate entries of the source, which are not always exact repeats. Equal values may be shown once.

Experiment: molar heat capacity at constant volume
Conditions: Fluid (supercritical or subcritical phases), Vacuum adiabatic calorimetry

CC(C)O [propan-2-ol]
Conditions | molar heat capacity at constant volume
452.05 K, Mass density=581.06 kg/m3 | 180.71 J/K/mol
452.1 K, Mass density=581.06 kg/m3 | 178.12 J/K/mol
452.15 K, Mass density=581.06 kg/m3 | 174.34 J/K/mol
452.2 K, Mass density=581.06 kg/m3 | 178.36 J/K/mol
452.25 K, Mass density=581.06 kg/m3 | 175.9 J/K/mol
463.48 K, Mass density=329.2 kg/m3 | 270.31 J/K/mol
463.58 K, Mass density=329.2 kg/m3 | 271.63 J/K/mol
463.68 K, Mass density=329.2 kg/m3 | 275.36 J/K/mol
463.78 K, Mass density=329.2 kg/m3 | 270.31 J/K/mol
463.83 K, Mass density=329.2 kg/m3 | 274.63 J/K/mol
463.97 K, Mass density=329.2 kg/m3 | 279.44 J/K/mol
464.18 K, Mass density=329.2 kg/m3 | 278.72 J/K/mol and 277.04 J/K/mol
464.27 K, Mass density=329.2 kg/m3 | 280.16 J/K/mol
464.42 K, Mass density=329.2 kg/m3 | 278.24 J/K/mol
464.47 K, Mass density=329.2 kg/m3 | 275.54 J/K/mol
464.97 K, Mass density=329.2 kg/m3 | 277.34 J/K/mol
465.27 K, Mass density=329.2 kg/m3 | 272.77 J/K/mol
465.34 K, Mass density=329.2 kg/m3 | 278.54 J/K/mol
482.51 K, Mass density=329.2 kg/m3 | 288.1 J/K/mol
482.6 K, Mass density=329.2 kg/m3 | 289.9 J/K/mol
482.7 K, Mass density=329.2 kg/m3 | 288.46 J/K/mol
482.8 K, Mass density=329.2 kg/m3 | 287.73 J/K/mol
482.89 K, Mass density=329.2 kg/m3 | 288.34 J/K/mol
482.99 K, Mass density=329.2 kg/m3 | 292 J/K/mol
483.09 K, Mass density=329.2 kg/m3 | 287.19 J/K/mol
483.18 K, Mass density=329.2 kg/m3 | 291.64 J/K/mol
491.97 K, Mass density=274 kg/m3 | 317.84 J/K/mol
492.07 K, Mass density=274 kg/m3 | 313.28 J/K/mol
492.16 K, Mass density=274 kg/m3 | 317.9 J/K/mol
492.25 K, Mass density=274 kg/m3 | 317.9 J/K/mol
492.35 K, Mass density=274 kg/m3 | 322.53 J/K/mol
492.44 K, Mass density=274 kg/m3 | 322.53 J/K/mol
492.54 K, Mass density=274 kg/m3 | 322.59 J/K/mol
492.63 K, Mass density=274 kg/m3 | 322.59 J/K/mol
492.73 K, Mass density=274 kg/m3 | 318.08 J/K/mol
493.86 K, Mass density=255.8 kg/m3 | 333.29 J/K/mol
493.95 K, Mass density=255.8 kg/m3 | 333.29 J/K/mol
494.05 K, Mass density=255.8 kg/m3 | 323.49 J/K/mol
494.14 K, Mass density=255.8 kg/m3 | 338.27 J/K/mol
494.24 K, Mass density=255.8 kg/m3 | 333.41 J/K/mol
494.33 K, Mass density=255.8 kg/m3 | 323.61 J/K/mol
494.43 K, Mass density=255.8 kg/m3 | 333.47 J/K/mol
494.52 K, Mass density=255.8 kg/m3 | 328.54 J/K/mol
494.52 K, Mass density=324.5 kg/m3 | 307.87 J/K/mol
494.62 K, Mass density=324.5 kg/m3 | 303.36 J/K/mol
494.71 K, Mass density=324.5 kg/m3 | 303.18 J/K/mol
494.8 K, Mass density=324.5 kg/m3 | 309.79 J/K/mol
494.99 K, Mass density=324.5 kg/m3 | 306.6 J/K/mol
495.09 K, Mass density=324.5 kg/m3 | 314.12 J/K/mol
495.27 K, Mass density=324.5 kg/m3 | 308.05 J/K/mol
495.37 K, Mass density=324.5 kg/m3 | 311.05 J/K/mol
495.46 K, Mass density=324.5 kg/m3 | 303.36 J/K/mol
495.56 K, Mass density=324.5 kg/m3 | 314.96 J/K/mol
499.41 K, Mass density=274 kg/m3 | 329.44 J/K/mol
499.5 K, Mass density=274 kg/m3 | 338.64 J/K/mol
499.6 K, Mass density=274 kg/m3 | 334.07 J/K/mol
499.69 K, Mass density=274 kg/m3 | 338.7 J/K/mol
499.79 K, Mass density=274 kg/m3 | 334.13 J/K/mol
499.88 K, Mass density=274 kg/m3 | 338.76 J/K/mol
499.97 K, Mass density=274 kg/m3 | 338.82 J/K/mol
500.07 K, Mass density=274 kg/m3 | 338.82 J/K/mol
500.16 K, Mass density=274 kg/m3 | 334.25 J/K/mol
500.25 K, Mass density=255.8 kg/m3 | 348.07 J/K/mol
500.35 K, Mass density=255.8 kg/m3 | 343.74 J/K/mol
500.44 K, Mass density=255.8 kg/m3 | 348.67 J/K/mol
500.54 K, Mass density=255.8 kg/m3 | 348.73 J/K/mol
500.63 K, Mass density=255.8 kg/m3 | 345.79 J/K/mol
500.72 K, Mass density=255.8 kg/m3 | 348.79 J/K/mol
500.82 K, Mass density=255.8 kg/m3 | 338.94 J/K/mol
500.85 K, Mass density=329.2 kg/m3 | 318.14 J/K/mol
500.91 K, Mass density=255.8 kg/m3 | 346.15 J/K/mol
500.95 K, Mass density=329.2 kg/m3 | 311.35 J/K/mol
501 K, Mass density=281.9 kg/m3 | 333.77 J/K/mol
501.04 K, Mass density=329.2 kg/m3 | 310.87 J/K/mol
501.09 K, Mass density=281.9 kg/m3 | 334.85 J/K/mol
501.1 K, Mass density=281.9 kg/m3 | 338.09 J/K/mol
501.14 K, Mass density=329.2 kg/m3 | 313.94 J/K/mol
501.23 K, Mass density=329.2 kg/m3 | 314.06 J/K/mol
501.29 K, Mass density=281.9 kg/m3 | 337.01 J/K/mol
501.33 K, Mass density=329.2 kg/m3 | 310.75 J/K/mol
501.38 K, Mass density=281.9 kg/m3 | 335.39 J/K/mol
501.42 K, Mass density=329.2 kg/m3 | 316.76 J/K/mol
501.47 K, Mass density=281.9 kg/m3 | 337.49 J/K/mol
501.53 K, Mass density=329.2 kg/m3 | 318.08 J/K/mol
501.57 K, Mass density=281.9 kg/m3 | 336.95 J/K/mol
501.62 K, Mass density=329.2 kg/m3 | 320.49 J/K/mol
501.66 K, Mass density=281.9 kg/m3 | 338.58 J/K/mol
501.75 K, Mass density=281.9 kg/m3 | 331 J/K/mol
501.81 K, Mass density=329.2 kg/m3 | 316.64 J/K/mol
501.85 K, Mass density=343.1 kg/m3 | 312.61 J/K/mol
501.9 K, Mass density=329.2 kg/m3 | 317.06 J/K/mol
501.94 K, Mass density=266.3 kg/m3 | 345.85 J/K/mol
